Two compounds from patent US20060167013A1, “Inhibitors for excessive accumulation of sodium ion in cells” (priority 2002, published 2006) can be followed below.

SMILES strings stand for the structures.

This assay deals with ischemic and reperfused hearts. In words: Ischemia and reperfusion of the isolated rat heart perfused by the Langendorff method: ventricular total sodium content and recovery in contractile tension. To be noted: for Sodium Content: 45 min ischemia, 30 min reperfusion, atomic absorption; for Recovery in Contractile Tension: at 30 min after reperfusion, relative to tension at beginning of experiment; for increase of ventricular sodium content induced by ischemia and reperfusion (result in words): added in the reperfusion solution. On the procedure:
The heart of the rat was excised and perfused with Krebs buffer solution (in mM: NaCl 119, KCl 4.6, MgSO4.7H2O 1.2, CaCl2·2H2O 1.3, NaHCO3 25, KH2PO4 1.2, glucose 11; pH 7.4, 37° C.) according to the Langendorff method. A thread was attached to the apex of the heart, and then the end was connected to a tension transducer to determine contractile tension. The preparation was stabilized, and then myocardial ischemia was induced by reducing a perfusion pressure (for 45 minutes). After reperfusion for 30 min, the heart was liquefied in nitric acid, and ventricular total sodium content was determined by atomic absorption analysis. Contractile tension was measured during the experiment, and a recovery rate in the contractile tension at 30 min after the reperfusion, relative to the contractile tension at the beginning of the experiment, was used as an index of cardiac contractility.

`N=C(N)NC(=O)c1nc(Cl)c(N)nc1N` [Amiloride, reference compound]: the “increase of ventricular sodium content induced by ischemia and reperfusion (result in words)” value is reported as “no effect”. For the same compound, for the setting “10^−3 M”, the “Sodium Content” value was 64.8 ± 3.7 µmol/g and the “Recovery in Contractile Tension” value turned out to be 59.0 ± 4.7 %. In addition, where the note is “10^−4 M”, the “Sodium Content” value came to 71.8 ± 3.3 µmol/g and the “Recovery in Contractile Tension” value was found to be 45.4 ± 3.8%. For the same compound, under “10^−5 M”, the “Sodium Content” value was 77.9 ± 3.9 µmol/g and the “Recovery in Contractile Tension” value is reported as 33.3 ± 7.2%.

As to `Cc1ccc(N2CCNCC2)c(S(=O)(=O)O)c1.O` [MCC-135, 5-methyl-2-(1-piperazinyl)benzenesulfonic acid monohydrate], the “increase of ventricular sodium content induced by ischemia and reperfusion (result in words)” value is “suppressed”. Moreover, the “Sodium Content” value (10^−6 M in reperfusion solution) came out at 59.9 ± 2.3 µmol/g. Also, the “Recovery in Contractile Tension” value (10^−6 M) was determined as 79.4 ± 4.7 %. For the same compound, under “10^−7 M in reperfusion solution”, the “Sodium Content” value worked out at 62.2 ± 0.6 µmol/g. Also, the “Recovery in Contractile Tension” value (10^−7 M) is 68.4 ± 3.2 %. In addition, the “Sodium Content” value (10^−8 M in reperfusion solution) was 68.7 ± 3.7 µmol/g. Where the note is “10^−8 M”, the “Recovery in Contractile Tension” value came to 49.1 ± 2.9%. Besides, the “Sodium Content” value (10^−9 M in reperfusion solution) amounted to 68.4 ± 6.2 µmol/g. In addition, the “Recovery in Contractile Tension” value (10^−9 M) was 40.0 ± 4.9%.
